The results in this text go back to patent publication US4169953A (priority 1977, dated 1979).

A short description of one data set: in vitro. The following applies: chicken, chick embryo fibroblasts.
The subject of another data set is Newcastle disease virus. Nature of the data set: microbe, parasite or virus in culture. The data set is classed as cell-based. The following applies: avian paramyxovirus 1, in Gallus gallus.

≈ marks a conversion by molar mass, not a printed value. Where a name gives a salt, the structure may show the parent alone.

The compound `O=C(OC1CCCC1)C12CCCC(C1)C1CCC2C1` (centres unmarked) registered an MCC in the data set “in vitro” of 200 µg/mL. The compound further showed an MIC in the data set with Newcastle disease virus of 40 mg/L (≈ 152 µM).
In “in vitro”, `O=C(OC1CCCCC1)C12CCCC(C1)C1CCC2C1` (centres unmarked) yielded an MCC of 200 µg/mL. In the data set with Newcastle disease virus, this compound came in with an MIC of 200 mg/L (≈ 724 µM).
Compound `O=C(OC1CC2CC1C1CCCC21)C12CCCC(C1)C1CCC2C1` (centres unmarked) came in with an MCC in the data set “in vitro” of 1000 µg/mL. For the same compound, the MIC against Newcastle disease virus turned out to be 200 mg/L (≈ 609 µM).
In the same order, the values of `COC(=O)C12CCCC(C1)C1CCC2C1` (centres unmarked) [CH3] are 200 µg/mL and 200 mg/L (≈ 960 µM).
For `NC12CC3CC(CC(C3)C1)C2` [adamantylamine hydrochloride, reference compound], in that order: 250 µg/mL and 250 mg/L.
For `CCCCOC(=O)C12CCCC(C1)C1CCC2C1` (centres unmarked) [n-C4 H9], in that order: 200 µg/mL and 40 mg/L (≈ 160 µM).
Compound `CCCCCCCCOC(=O)C12CCCC(C1)C1CCC2C1` (centres unmarked) [n-C8 H17] displayed an MCC in “in vitro” of 1000 µg/mL. The MIC in the data set on Newcastle disease virus is 200 mg/L (≈ 653 µM).
